Patent US6680336B2, “Cyclic AMP-specific phosphodiesterase inhibitors” (ICOS Corporation, priority 1999, dated 2004)

Assays:
[1] = system: TNFα secretion in human peripheral blood lymphocytes; test: Lipopolysaccharide-stimulated TNFα release from human peripheral blood lymphocytes; format: cell-based; details: Lymphocyte; LPS-stimulated TNFα release from human PBL
Experimental: The compounds of structural formula (II) also were tested for an ability to reduce TNFα secretion in human peripheral blood lymphocytes. The ability to reduce TNFα secretion is related to the EC50 values i.e., the effective concentration pf the compound capable of inhibiting 50% of the total TNFα).
To assess the ability of a compound to reduce TNFα secretion in human peripheral blood lymphocytes (PBL), the following tests were performed.
Heparinized blood (approximately 30 mL) drawn from human volunteers was mixed 1:1 with Dulbecco's modified phosphate-buffered saline. This mixture was mixed 1:1 with HISTOPAQUE® and centrifuged at 1,500 rpm at room temperature without braking in the swinging bucket of a Beckman model TJ6 centrifuge. Erythrocytes were centrifuged to the bottom of the tubes, and serum remained at the surface of the tubes. A layer containing lymphocytes sedimented between the serum and HISTOPAQUE® layers, and was removed by aspiration to a fresh tube. The cells were quantified and adjusted to […] and a 100 μL aliquot is placed into the wells of a 96 well plate. Test compounds and RPMI media (Gibco/BRL Life Sciences) are added to each of the wells 15 minutes prior to addition of bacterial LPS ([…]). The mixture was allowed to incubate for 20 hours at 37° C. in a humidified chamber. The cells then were separated by centrifuging at 800 rpm for 5 minutes at room temperature. An aliquot of 180 μL of supernatant was transferred to a new plate for determination of TNFα concentration. TNFα protein in the cell supernatant fluids was measured using a commercially available enzyme-linked immunosorbent assay (ELISA) (CYTOSCREEN® Immunoassay Kit from Biosource International).
The cell-based assay provided the following results for various pyrrolidine compounds of the present invention. The EC50 values (i.e., effective concentration of the compound capable of inhibiting 50% of the total TNFα) illustrate the ability of the present compounds to inhibit LPS-stimulated TNFα release from human PBL.

recombinant human PDE4 = target: T1, recombinant human PDE4; test: PDE4 inhibition, charcoal separation [32P]cAMP phosphodiesterase assay; format: biochemical
T1 construct: PDE4 IC50; other: human recombinant PDE4
Experimental: The compounds of structural formula (II) were tested for an ability to inhibit PDE4. The ability of a compound to inhibit PDE4 activity is related to the IC50 value for the compound, i.e., the concentration of inhibitor required for 50% inhibition of enzyme activity. The IC50 value for compounds of structural formula (II) were determined using recombinant human PDE4.
Recombinant production of human PDE1B, PDE2, PDE4A, PDE4B, PDE4C, PDE4D, PDE5, and PDE7 was carried out similarly to that described in Example 7 of U.S. Pat. No. 5,702,936, incorporated herein by reference, except that the yeast transformation vector employed, which is derived from the basic ADH2 plasmid described in Price et al., Methods in Enzymology, 185, pp. 308-318 (1990), incorporated yeast ADH2 promoter and terminator sequences and the Saccharomyces cerevisiae host was the protease-deficient strain BJ2-54 deposited on Aug. 31, 1998 with the American Type Culture Collection, Manassas, Va., under accession number ATCC 74465. Transformed host cells were grown in 2×SC-leu medium, pH 6.2, with trace metals, and vitamins. After 24 hours, YEP medium-containing glycerol was added to a final concentration of 2×YET/3% glycerol. Approximately 24 hr later, cells were harvested, washed, and stored at −70° C.
Phosphodiesterase activity of the preparations was determined as follows. PDE assays utilizing a charcoal separation technique were performed essentially as described in Loughney et al. (1996). In this assay, PDE activity converts [32P]cAMP or [32P]cGMP to the corresponding [32P]5′-AMP or [32P]5′-GMP in proportion to the amount of PDE activity present. The [32P]5′-AMP or [32P]5′-GMP then was quantitatively converted to free [32P]phosphate and unlabeled adenosine or guanosine by the action of snake venom 5′-nucleotidase. […] The assay was performed at 30° C. in a 100 μL reaction mixture containing (final concentrations) 40 mM Tris HCl (pH 8.0), 1 μM ZnSO4, 5 mM MgCl2, and 0.1 mg/mL bovine serum albumin (BSA). Alternatively, in assays assessing PDE1-specific activity, incubation mixtures further incorporated the use of 0.1 mM CaCl2 and 10 μg/mL calmodulin. PDE enzyme was present in quantities that yield <30% total hydrolysis of substrate (linear assay conditions). The assay was initiated by addition of substrate (1 mM [32P]cAMP or cGMP), and the mixture was incubated for 12 minutes. Seventy-five (75) μg of Crotalus atrox venom then was added, and the incubation was continued for 3 minutes (15 minutes total). The reaction was stopped by addition of 200 μL of activated charcoal (25 mg/mL suspension in 0.1 M […], pH 4). After centrifugation (750×g for 3 minutes) to sediment the charcoal, a sample of the supernatant was taken for radioactivity determination in a scintillation counter and the PDE activity was calculated.
Inhibitor analyses were performed similarly to the method described in Loughney et al., J. Biol. Chem., 271, pp. 796-806 (1996), except both cGMP and cAMP were used, and substrate concentrations were kept below 32 nM, which is far below the Km of the tested PDEs.

Compound	EC50 [1] [nM]	IC50 (recombinant human PDE4) [nM]
COC(=O)N1C[C@@H](c2ccc(OC)c(OC3CCCC3)c2)[C@](C)(CN)C1 [Example 2, Methyl (4S,3R)-3-(aminomethyl)-4-(3-cyclopentyloxy-4-methoxyphenyl)-3-methylpyrrolidinecarboxylate]	142	28.5
COC(=O)N1CC(c2ccc(OC)c(OC3CCCC3)c2)[C@](C)(CNS(C)(=O)=O)C1 (stereo partly drawn) [Example 3]		3180
COC(=O)N1C[C@@H](c2ccc(OC)c(OC3CCCC3)c2)[C@](C)(CNC(C)=O)C1 [Example 4, Methyl (4S,3R)-3-[(acetylamino)methyl]-4-(3-cyclopentyloxy-4-methoxyphenyl)-3-methylpyrrolidine-carboxylate]		3090
COc1ccc([C@@H]2CN(Cc3ccccc3)C[C@@]2(C)C(C)N)cc1OC1CCCC1 (stereo partly drawn) [Example 8, 1-[(3S,4S)-4-(3-Cyclopentyloxy-4-methoxyphenyl)-3-methyl-1-benzylpyrrolidin-3-yl]ethylamine]	1560	673
COC(=O)N1C[C@@H](c2ccc(OC)c(OC3CCCC3)c2)[C@](C)(C(C)NC(C)=O)C1 (stereo partly drawn) [Example 14, 3-(S)-(1-Acetylaminoethyl)-4-(S)-(3-cyclopentyloxy-4-methoxyphenyl)-3-methylpyrrolidine-1-carboxic Acid Methyl Ester]	598	
COC(=O)N1C[C@@H](c2ccc(OC)c(OC3CCCC3)c2)[C@](C)(CNC(=O)OC(C)(C)C)C1 [Example 21]		2200
COC(=O)N1C[C@@H](c2ccc(OC)c(OC3Cc4ccccc4C3)c2)[C@](C)(CN)C1 [Example 24]	76.5	22.9
COC(=O)N1C[C@@H](c2ccc(OC)c(OCC3CC3)c2)[C@](C)(CN)C1 [Example 25]	85.5	53
COc1ccc([C@@H]2CN(C(=O)C(C)(C)O)C[C@@]2(C)CN)cc1OCC1CC1 [Example 26]	450	235
COc1ccc([C@@H]2CN(C(=O)CO)C[C@@]2(C)CN)cc1OCC1CC1 [Example 27]	816	479
CCNC[C@]1(C)CN(C(=O)OC)C[C@H]1c1ccc(OC)c(OC2Cc3ccccc3C2)c1 [Example 28]	1390	591

Next, values leading:

EC50 [1] [nM]	IC50 (recombinant human PDE4) [nM]	Compound
776	1400	COC(=O)N1C[C@@H](c2ccc(OC)c(OC3CCCC3)c2)[C@](C)(CNCc2ccccc2)C1 [Example 1, Methyl (4S,3R)-4-(3-cyclopentyloxy-4-methoxyphenyl)-3-methyl-3-{[benzylamino]methyl]}pyrrolidine carboxylate]
	2510	COC(=O)N1C[C@@H](c2ccc(OC)c(OC3CCCC3)c2)[C@](C)(CNC(=O)c2ccccc2)C1 [Example 5, Methyl (4S,3R)-4-(3-cyclopentyloxy-4-methoxyphenyl)-3-methyl-3-[(phenylcarbonylamino)methyl]pyrrolidinecarboxylate]
730	506	COC(=O)N1CC(c2ccc(OC)c(OC3CCCC3)c2)[C@](C)(CNS(=O)(=O)c2ccccc2)C1 (stereo partly drawn) [Example 6]
	2950	COc1ccc([C@@H]2CN(Cc3ccccc3)C[C@@]2(C)C(C)NC(=O)c2ccccc2)cc1OC1CCCC1 (stereo partly drawn) [Example 10, N-{1-[(3S,4S)-4-(3-Cyclopentyloxy-4-methoxyphenyl)-3-methyl-1-benzylpyrrolidin-3-yl]ethyl}benzamide]
	27100	COc1ccc([C@@H]2CN(Cc3ccccc3)C[C@@]2(C)C(C)NC(=O)c2ccccc2)cc1OC1CCCC1 (stereo partly drawn) [Example 11, N-{1-[(3S,4S)-4-(3-Cyclopentyloxy-4-methoxyphenyl)-3-methyl-1-benzylpyrrolidin-3-yl]ethyl}benzamide]
	14700	COc1ccc([C@@H]2CN(Cc3ccccc3)C[C@@]2(C)C(C)NC(C)=O)cc1OC1CCCC1 (stereo partly drawn) [Example 12, N-{1-[(3S,4S)-4-(3-Cyclopentyloxy-4-methoxyphenyl)-3-methyl-1-benzylpyrrolidin-3-yl]ethyl}acetamide]
	2440	COc1ccc([C@@H]2CN(Cc3ccccc3)C[C@@]2(C)C(C)NC(C)=O)cc1OC1CCCC1 (stereo partly drawn) [Example 13, N-{1-[(3S,4S)-4-(3-Cyclopentyloxy-4-methoxyphenyl)-3-methyl-1-benzylpyrrolidin-3-yl]ethyl}acetamide]
	8970	COc1ccc([C@@H]2CN(Cc3ccccc3)C[C@@]2(C)C(C)NS(=O)(=O)c2ccccc2)cc1OC1CCCC1 (stereo partly drawn) [Example 15, {1-[(3S,4S)-4-(3-Cyclopentyloxy-4-methoxyphenyl)-3-methyl-1-benzylpyrrolidin-3-yl]ethyl}-(phenylsulfonyl)amine]
	9080	COc1ccc(C2CN(Cc3ccccc3)C[C@@]2(C)C(C)NS(=O)(=O)c2ccccc2)cc1OC1CCCC1 (stereo partly drawn) [Example 16, {1-[(3S,4S)-4-(3-cyclopentyloxy-4-methoxyphenyl)-3-methyl-1-benzylpyrrolidin-3-yl]ethyl}-(phenylsufonyl)amine]
	8660	COc1ccc([C@@H]2CN(Cc3ccccc3)C[C@@]2(C)C(C)NS(C)(=O)=O)cc1OC1CCCC1 (stereo partly drawn) [Example 17, {1-[(3S,4S)-4-(3-Cyclopentyloxy-4-methoxyphenyl)-3-methyl-1-benzylpyrrolidin-3-yl]ethyl}-(methylsulfonyl)amine]
	7390	COc1ccc([C@@H]2CN(Cc3ccccc3)C[C@@]2(C)C(C)NS(C)(=O)=O)cc1OC1CCCC1 (stereo partly drawn) [Example 18, {1-[(3S,4S)-4-(3-Cyclopentyloxy-4-methoxyphenyl)-3-methyl-1-benzylpyrrolidin-3-yl]ethyl}-(methylsulfonyl)amine]
	5890	COc1ccc(C2CN(Cc3ccccc3)C[C@]2(C)CN(C)C)cc1OC1CCCC1 (stereo partly drawn) [Example 22]
	7550	CNC[C@]1(C)CN(Cc2ccccc2)CC1c1ccc(OC)c(OC2CCCC2)c1 (stereo partly drawn) [Example 23]
